Assay results from article PMC5116089, “Sulfheme formation during homocysteine S-oxygenation by catalase in cancers and neurodegenerative diseases” (Nature Communications, 2016).

Biological target: T1, immunocaptured catalase (Homo sapiens, UniProt P04040)
T1 construct: Endogenous catalase activity in cell lysates; endogenous in cells; host or cells: human colorectal cancer cell lines; BE2-M17 human neuroblastoma cells (with or without rotenone)
T1 sequence (P04040 2-527 limits assumed): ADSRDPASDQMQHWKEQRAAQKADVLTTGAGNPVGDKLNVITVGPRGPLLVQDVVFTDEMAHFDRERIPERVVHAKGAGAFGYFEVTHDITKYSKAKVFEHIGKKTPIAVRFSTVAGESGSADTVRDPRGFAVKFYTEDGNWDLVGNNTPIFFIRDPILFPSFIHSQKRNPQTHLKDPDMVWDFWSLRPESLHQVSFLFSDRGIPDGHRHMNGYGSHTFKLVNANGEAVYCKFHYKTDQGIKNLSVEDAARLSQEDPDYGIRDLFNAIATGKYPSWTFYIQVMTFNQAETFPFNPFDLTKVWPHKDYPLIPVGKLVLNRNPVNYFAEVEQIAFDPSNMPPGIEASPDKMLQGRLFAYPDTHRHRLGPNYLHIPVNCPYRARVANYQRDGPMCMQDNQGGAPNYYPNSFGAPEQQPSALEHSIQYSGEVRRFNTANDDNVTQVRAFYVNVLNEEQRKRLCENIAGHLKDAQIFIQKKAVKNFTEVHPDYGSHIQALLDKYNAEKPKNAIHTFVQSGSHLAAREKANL
Assay: Relative specific activity of immunocaptured catalase (SpCAT) after incubation with NaSH
Type: biochemical
Conditions: for effect of NaSH on SpCAT: NaSH 0–50 μM
Description: The relative specific activity (activity and quantity) of catalase in the cell lysates was determined using the kit ab118184 from Abcam (Cambridge, MA). The measurements were performed in duplicate as per the manufacturer's protocol. Briefly, catalase in cell lysates (0.1–0.2 mg cell lysates per assay) was immunocaptured within the wells of the microplate. An assay buffer, which contains H2O2 that reacts with a substrate to generate a luminescent product, was added to each well. The presence of catalase in the reaction mixture reduces the production of light and the light produced in each well is thus inversely proportional to the amount of catalase activity. Then, the quantity of catalase was measured by adding to each well an anti-catalase primary detector antibody. After 1 h incubation at RT, the unbound detector antibody was washed away and an HRP-conjugated labelled secondary antibody specific for the primary detector antibody was added to the wells. After 1 h incubation, the wells were again washed and a 3,3′,5,5′-Tetramethylbenzidine (TMB) substrate solution was added to the wells. A blue colour (absorbance at 600 nm) developed in proportion to the amount of catalase bound. Luminescence and absorbance measurements were performed on an EnSpire Multilabel Reader 2300 (PerkinElmer). To check the effect of NaSH on the relative specific activity of catalase, the immunocaptured catalase was incubated with various concentrations of NaSH (0–50 μM) for 5 min at RT before carefully washing twice each well. The protocol above was then followed to determine activity measurement and catalase quantification.

## [Na+].[SH-] [NaSH]
BE2-M17 cells versus rotenone-treated BE2-M17 cells
  response of SpCAT towards NaSH: similar
HCT-15 cancer cells
  effect of NaSH on SpCAT: inhibited
HCT-116 cancer cells
  effect of NaSH on SpCAT: almost unaffected
HT-29 Glc−/+ control cell line
  effect of NaSH on SpCAT: almost unaffected
MDST8 cancer cells
  effect of NaSH on SpCAT: activated
